Source: patent US8227428B2, “Anti-infammatory macrolide” (Glaxo Group Limited, priority 2009, dated 2012)
In brackets after ≈: the same amount, converted by molar mass.

Tests used:
[1] = In vitro stability in human whole blood; format: in vitro ADME; details: 37° C.
Protocol: (§1) An in vitro stability study in human whole blood and plasma is carried out over 24 hours at 37° C. Drug-free freshly collected human blood (CPD—citrate-phosphate-dextrose is used for all blood collections as anticoagulant) and plasma are spiked with a previously prepared standard solution of test compound to a final concentration of 2000 ng/mL. For each compound blood and plasma are spiked in duplicate and incubated for 24 hours. Two separate aliquots of blood or plasma (50 μL) are sampled from each incubation mixture at 0, 15, 30, 60, 120, 240 and 1440 minutes. All aliquots are mixed with an equal volume of water (50 μL) and extracted with 300 μL of acetonitrile/methanol (2:1) containing internal standard (roxithromycin). The samples are then vortexed, centrifuged and analysed by LC/MS/MS (MRM mode). Results are expressed as the percentage of compound remaining, expressed as the ratio of analyte/internal standard.

[2] = In vitro stability in human plasma; format: in vitro ADME; details: 37° C.
Protocol: as §1

[3] = system: Streptococcus pyogenes ATCC700294; experiment: Anti-bacterial screening, broth microdilution MIC; format: cell-based; details: read-out: minimal inhibitory concentration (MIC)
Protocol: (§2) Whole-cell antimicrobial activity of compounds against clinically relevant bacteria (Staphylococcus aureus ATCC13709, Streptococcus pneumoniae ATCC49619, Streptococcus pyogenes ATCC700294, Moraxella catarrhalis ATCC23246, Haemophilus influenzae ATCC49247 and Escherichia coli ATCC25922) is determined by broth microdilution using the Clinical and Laboratory Standards (CLSI) recommended procedure (Document M7-[…], Methods for Dilution Susceptibility Tests for Bacteria that Grow Aerobically). Compounds are dissolved in DMSO to produce a 50 mM stock solution. The stock solution is diluted to a concentration of 128 μg/mL in appropriate media (Haemophilus Test Medium for Haemophilus influenzae, Mueller-Hinton Broth for Staphylococcus aureus, Moraxella catarrhalis and Escherichia coli, and Mueller-Hinton Broth supplemented with 5% horse serum for Streptococcus pyogenes and Streptococcus pneumoniae) to produce a working solution. A Tecan Genesis 150 Workstation (Tecan Group Ltd. Mannedorf, Switzerland) is used to prepare serial two-fold dilutions (50 μL aliquots) of the working solution in a U-shape bottom 96 well microtitre plate. After the compounds are diluted, a 50 μL aliquot of the test isolate ( 1×10^6 cfu/ml) is added to each well of the microtitre plate. The final test concentrations range from 0.125-64 μg/mL. Inoculated plates are incubated at 35° C. in ambient air for 18 to 24 hours. The minimum inhibitory concentration (MIC) is determined as the lowest concentration of compound that inhibited visible growth.

[4] = system: Staphylococcus aureus ATCC13709; experiment: Anti-bacterial screening, broth microdilution MIC; format: cell-based; details: read-out: minimal inhibitory concentration (MIC)
Protocol: as §2

[5] = system: Haemophilus influenzae ATCC49247; experiment: Anti-bacterial screening, broth microdilution MIC; format: cell-based; details: read-out: minimal inhibitory concentration (MIC)
Protocol: as §2

[6] = system: Moraxella catarrhalis ATCC23246; experiment: Anti-bacterial screening, broth microdilution MIC; format: cell-based; details: read-out: minimal inhibitory concentration (MIC)
Protocol: as §2

[7] = system: Escherichia coli ATCC25922; experiment: Anti-bacterial screening, broth microdilution MIC; format: cell-based; details: read-out: minimal inhibitory concentration (MIC)
Protocol: as §2

[8] = system: Streptococcus pneumoniae ATCC49619; experiment: Anti-bacterial screening, broth microdilution MIC; format: cell-based; details: read-out: minimal inhibitory concentration (MIC)
Protocol: as §2

[9] = system: Lung neutrophilia induced by bacterial lipopolysaccharide (LPS); experiment: Lung neutrophilia induced by bacterial lipopolysaccharide (LPS) in male BALB/cJ mice; format: in vivo; details: average; single dose 200 mg/kg i.p.; vs LPS challenged untreated animals
Protocol: For intraperitoneal administration (i.p.) compounds are dissolved in a final concentration of 10 mg/mL. The required amount of compound is first dissolved in dimethylsulfoxide (DMSO, Sigma) and then diluted with 0.5% (w/v) methyl-cellulose so that the final DMSO concentration is 5% (v/v). The obtained solution is applied in a dose volume of 0.2 mL per 10 g of animal. Therefore, the compound dose is 200 mg/kg.
Male BALB/cJ mice (Charles River, France), with an average weight of ˜30 g are randomly grouped (n=8 in testing group, 10 in positive control and 8 in negative control). Mice receive intraperitoneally (i.p.) a single dose of 200 mg/kg of test compound. Two hours after administration, 2 μg of LPS (from Escherichia coli serotype 0111:B4, Sigma), dissolved in sterile PBS in a volume of 60 μL, is intranasally administered to all experimental groups except the negative control group, which receive the same volume of vehicle (PBS). Animals are sacrificed approximately 24 hours after application of LPS in order to obtain bronchioalveolar lavage fluid (BALF), which is used to determine absolute number of cells and the percentage of neutrophils. Results are expressed as percentage decrease in total cell number and number of neutrophils in BALF of treated animals compared to positive control (LPS challenged, but untreated animals).

Compound | compound remaining in whole blood ([1]; after 24 hours) | compound remaining in plasma ([2]; after 24 hours) | MIC [3] [µg/mL] | MIC [4] [µg/mL] | MIC [5] [µg/mL] | MIC [6] [µg/mL] | MIC [7] [µg/mL] | MIC [8] [µg/mL] | inhibition of the number of neutrophils in BALF [9] | stability in whole blood ([1]; 2000 ng/mL, over 24 hours) | stability in plasma ([2]; 2000 ng/mL, over 24 hours)
CC[C@H]1OC(=O)[C@H](C)[C@@H](O[C@H]2C[C@@](C)(OC)[C@@H](OC(=O)CCN(CC)CC)[C@H](C)O2)[C@H](C)[C@@H](O[C@@H]2O[C@H](C)C[C@H](NC)[C@H]2O)[C@](C)(OC)C[C@@H](C)C(=O)N[C@H](C)[C@@H](O)[C@]1(C)O [Example 2, 3′-N-Demethyl-4″-O-(3-diethylaminopropionoyl)-6-O-methyl-9a-aza-9a-homoerythromycin A] | around 41% | less than 2% | > 64 | > 64 | > 64 | > 64 | > 64 | > 64 | more than 70% | – | –
CC[C@H]1OC(=O)[C@H](C)[C@@H](O[C@H]2C[C@@](C)(OC)[C@@H](OC(=O)CN(CC)CC)[C@H](C)O2)[C@H](C)[C@@H](O[C@@H]2O[C@H](C)C[C@H](N(C)C)[C@H]2O)[C@](C)(OC)C[C@@H](C)C(=O)N[C@H](C)[C@@H](O)[C@]1(C)O [Example 3, 4″-O-(2-diethylaminoethanoyl)-6-O-methyl-9a-aza-9a-homoerythromycin A] | – | – | > 64 | > 64 | > 64 | 8 (≈ 9.13 µM) | > 64 | 8 (≈ 9.13 µM) | more than 79% | stable | stable
